Experimental data: patent US7968601B2, “Adamantyl acetamides as 11-β hydroxysteroid dehydrogenase inhibitors” (Janssen Pharmaceutica N.V., priority 2002, dated 2011)

Experiments:
[1] = target: T1, 11b-HSD2 (Homo sapiens, UniProt P80365); test: Enzymatic assay, 11b-HSD2 dependent dehydrogenase activity; format: biochemical; conditions: 11b-HSD2 dehydrogenase activity, pIC50 scored 1-3, read-out: [C1] HSD2 prot Dehydro Score
T1 sequence (P80365 1-405): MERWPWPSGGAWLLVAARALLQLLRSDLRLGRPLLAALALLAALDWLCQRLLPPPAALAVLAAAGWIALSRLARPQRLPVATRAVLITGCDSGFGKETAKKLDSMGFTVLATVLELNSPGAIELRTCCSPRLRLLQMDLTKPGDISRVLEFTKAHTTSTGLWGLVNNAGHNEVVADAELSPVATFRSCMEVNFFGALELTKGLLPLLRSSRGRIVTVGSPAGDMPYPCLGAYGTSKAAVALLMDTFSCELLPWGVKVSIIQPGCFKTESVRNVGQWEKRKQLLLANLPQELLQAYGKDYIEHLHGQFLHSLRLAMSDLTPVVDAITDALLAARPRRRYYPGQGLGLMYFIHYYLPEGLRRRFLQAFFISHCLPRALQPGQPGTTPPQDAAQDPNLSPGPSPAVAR
Procedure: The effects on the 11b-HSD2 dependent dehydrogenase activity was studied in a reaction mixture containing 0.1M sodium phosphate buffer pH 7.5, 300 μM NAD, 100 nM cortisol (of which 2 nM is 3H-radio labelled), 1 μl drug and/or solvent and 2.5 μg recombinant protein in a final volume of 100 μl.
(§1) All incubations were performed for 45 min at 37 C in a water bath. The reaction was stopped by adding 100 μl acetonitrile containing 20 μg corticosterone as internal standard. After centrifugation, the product formation was analysed in the supernatant by HPLC on a Hypersyl BDS-C18 column using 0.05 mM ammonium acetate/methanol (50/50) as solvent. In all of the aforementioned assays, the drugs to be tested were taken from a stock solution and tested at a final concentration ranging from […] to 3.10^−9M. From the thus obtained dose response curves, the pIC50 value was calculated and scored as follows; Score 1=pIC50 value<5, Score 2=pIC50 value in the range of 5 to 6, Score 3=pIC50 value>6. (in this table NT stands for Not Tested).

[2] = target: T1, 11b-HSD2; test: Cellular assay, 11b-HSD2 activity in HepG2 cells; format: cell-based; parameters: endogenous in cells; host or cells: HepG2 (ATCC HB-8065); conditions: 4 hour pre-incubation; for IC50: pIC50 scored 1-3, read-out: [C2] HSD2 cellular HepG2 Score
Procedure: The effects on 11b-HSD2 activity was studied in HepG2 and LCC-PK1-cells HepG2-cells (ATCC HB-8065) were seeded in 12 well plates at a density of 100,000 cells/ml and grown at 37 C in a humidified 5% CO2 atmosphere in MEM-Rega-3 medium supplemented with 10% heat inactivated foetal calf serum, 2 mM L-glutamine and sodium bicarbonate). Medium was refreshed twice a week. Pig kidney cells (LCC-PK1, ATCC CRL-1392) were seeded at a density of 150,000 cells/ml in 12 well plates and grown at 37 C in a humidified 5% CO2 atmosphere in Medium 199 supplemented with Earls modified salt solution, 100 U/ml penicillin, 100 μg/ml streptomycin and 10% foetal calf serum. Medium was refreshed twice a week. Twenty four hours prior to the onset of the experiment, medium was changed by medium containing 10% charcoal stripped foetal calf serum.
Following a 4 hour pre-incubation with test compound, 0.5 μCi ^3H-cortisol or corticosterone, was added to the cultures. One hour later, the medium was extracted on Extrelut^3-columns with 15 ml diethyl ether and the extract was analysed by HPLC as described above.
(§2) As for the enzymatic assays, the compounds to be tested were taken from a stock solution and tested at a final concentration ranging from […] to 3.10^−9M. From the thus obtained dose response curves, the pIC50 value was calculated and scored as follows; Score 1=pIC50 value<5, Score 2=pIC50 value in the range of 5 to 6, Score 3=pIC50 value>6. (in this table NT stands for Not Tested).

[3] = target: T2, 11b-HSD1 (Mus musculus, UniProt P50172); test: Cellular assay, 11b-HSD1 activity in differentiated 3T3-L1 cells; format: cell-based; conditions: 4 hour pre-incubation; for IC50: pIC50 scored 1-3, read-out: [C2] HSD1 cellular 3T3-L1 Score
T2 construct: endogenous in cells; host or cells: 3T3-L1 (ATCC-CL-173), differentiated into adipocytes
Procedure: The effects on 11b-HSD1 activity was measured in differentiated 3T3-L1 cells and rat hepatocytes.
Mouse fibroblast 3T3-L1 cells (ATCC-CL-173) were seeded at a density of 16500 cells/ml in 12 well plates and grown for 7 days in DMEM medium (supplemented with 10% heat inactivated foetal calf serum, 2 mM glutamine and 25 mg gentamycin) at 37 C in a humidified 5% CO2 atmosphere. Medium was refreshed twice a week. Fibroblasts were differentiated into adipocytes at 37 C in a 5% CO2 humidified atmosphere in growth medium containing 2 μg/ml insulin, 55 μg/ml IBMX and 39.2 μg/ml dexamethasone.
Following a 4 hour pre-incubation with test compound, 0.5 μCi ^3H-cortisone or dehydrocorticosterone, was added to the cultures. One hour later, the medium was extracted on Extrelut^3-columns with 15 ml diethyl ether and the extract was analysed by HPLC as described above.
as §2

[4] = target: 11b-HSD1 (Homo sapiens, UniProt P28845); test: Enzymatic assay, 11b-HSD1 reductase activity (conversion of cortisone into cortisol); format: biochemical; conditions: pIC50 scored 1-3, read-out: [C1] HSD1-prot Reduct Score
Procedure: The effects of compounds on 11b-HSD1 dependent conversion of cortisone into cortisol (reductase activity) was studied in a reaction mixture containing 30 mM Tris-HCl buffer pH 7.2, 180 μM NADPH, 1 mM EDTA, 2 μM cortisone, 1 μl drug and/or solvent and 11 μg recombinant protein in a final volume of 100 μl.
as §1

Sequence of 11b-HSD1 (Homo sapiens, UniProt P28845) (P28845 whole entry): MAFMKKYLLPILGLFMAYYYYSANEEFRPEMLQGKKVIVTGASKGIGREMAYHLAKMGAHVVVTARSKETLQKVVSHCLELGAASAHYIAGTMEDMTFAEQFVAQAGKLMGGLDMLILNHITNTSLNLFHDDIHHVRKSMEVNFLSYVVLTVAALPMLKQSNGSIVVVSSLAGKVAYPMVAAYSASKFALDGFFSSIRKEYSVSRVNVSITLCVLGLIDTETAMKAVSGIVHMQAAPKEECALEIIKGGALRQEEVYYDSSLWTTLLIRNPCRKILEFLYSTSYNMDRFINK
T2 sequence (P50172 whole entry): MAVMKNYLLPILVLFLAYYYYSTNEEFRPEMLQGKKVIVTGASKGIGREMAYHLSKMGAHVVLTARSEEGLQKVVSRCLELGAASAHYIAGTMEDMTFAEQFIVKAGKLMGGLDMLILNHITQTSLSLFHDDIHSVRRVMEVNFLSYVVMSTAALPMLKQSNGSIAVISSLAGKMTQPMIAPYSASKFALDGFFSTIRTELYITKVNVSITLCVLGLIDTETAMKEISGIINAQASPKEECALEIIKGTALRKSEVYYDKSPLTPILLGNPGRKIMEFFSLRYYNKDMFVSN

Structure (SMILES)	IC50 [1] [µM]	IC50 [2] [µM]	IC50 [3] [µM]	IC50 [4] [µM]	[C2] HSD2 cellular HepG2 Score ([2]; pIC50 scored 1-3)	[C2] HSD1 cellular 3T3-L1 Score ([3]; pIC50 scored 1-3)
CC(C)(C(=O)NC1CCCCCCC1)c1ccccc1 [Compound 46]	> 10	> 10	< 1	> 10		
CC(C)(C(=O)NC1C2CC3CC(C2)CC1C3)c1cccc(CCC(=O)O)c1 (stereo not drawn) [Compound 196]	> 10	> 10	< 1	< 1		
CC(C)(C(=O)NC1C2CC3CC(C2)CC1C3)c1cccc(C(F)(F)F)c1 (stereo not drawn) [Compound 85]	> 10	> 10	< 1	> 10		
O=C(NC12CC3CC(CC(C3)C1)C2)C1(c2ccccc2)CCC1 [Compound 16]	> 10	> 10	1 to 10			
CC(C)(C(=O)NC1C2CC3CC(C2)CC1C3)c1cc(F)ccc1F (stereo not drawn) [Compound 88]	> 10	> 10	< 1	> 10		
CC(C)(C(=O)NC1C2CC3CC(C2)CC1C3)c1cccc(F)c1 (stereo not drawn) [Compound 84]	> 10	> 10	< 1	> 10		
CC(C(=O)NC1C2CC3CC(C2)CC1C3)c1ccccc1 (stereo not drawn) [Compound 28]		> 10	< 1			
COc1ccc(C(C)(C)C(=O)NC2C3CC4CC(C3)CC2C4)cc1OC (stereo not drawn) [Compound 86]	> 10	> 10	< 1	> 10		
O=C(NC1C2CC3CC(C2)CC1C3)[C@H]1Cc2ccccc2CN1 (stereo partly drawn) [Compound 255]	> 10	> 10	< 1			
O=C(NC1CC2CCC1C2)C1(c2ccccc2)CC1 (stereo not drawn) [Compound 64]	> 10	> 10	1 to 10			
CC1(C)C2CCC1(C)C(NC(=O)C1(c3ccccc3)CCCC1)C2 (stereo not drawn) [Compound 57]	> 10	> 10	1 to 10			
CN(C)CCOc1cccc(C(C)(C)C(=O)NC2C3CC4CC(C3)CC2C4)c1 (stereo not drawn) [Compound 7]		> 10	< 1	> 10		
O=C(Cc1ccccc1)NC1C2CC3CC(C2)CC1C3 (stereo not drawn) [Compound 30]		> 10	< 1			
O=C(NCC12CC3CC(CC(C3)C1)C2)C1(c2ccccc2)CCCC1 [Compound 35]	> 10	> 10	1 to 10			
CC1(C)C2CCC1(C)C(NC(=O)C1(c3ccccc3)CC1)C2 (stereo not drawn) [Compound 55]	> 10	> 10	< 1			
CC1CCCCC1NC(=O)C1(c2ccccc2)CC1 (stereo not drawn) [Compound 19]	> 10	> 10	1 to 10			
O=C(NC1CC2CCC1C2)C1(c2ccccc2)CCCC1 (stereo not drawn) [Compound 22]	> 10	> 10	1 to 10			
Cc1cc(C)cc(C(C)(C)C(=O)NC2C3CC4CC(C3)CC2C4)c1 (stereo not drawn) [Compound 3]		> 10	< 1	< 1		
CC(C)(C(=O)NC1C2CC3CC(C2)CC1C3)c1ccc(Cl)cc1Cl (stereo not drawn) [Compound 106]		> 10	< 1	> 10		
CC(C)(C(=O)NC1C2CC3CC(C2)CC1C3)c1ccc(Cl)cc1 (stereo not drawn) [Compound 1]	> 10	> 10	< 1			
O=C(NC1C2CC3CC(C2)CC1C3)C1CCc2ccccc2N1 (stereo not drawn) [Compound 253]	> 10	> 10	< 1			
COc1ccc(OC)c(C(C)(C)C(=O)NC2C3CC4CC(C3)CC2C4)c1 (stereo not drawn) [Compound 154]				> 10	1 (Score 1=pIC50 value<5)	3 (Score 3=pIC50 value>6)
CC(C)(C(=O)NC1C2CC3CC(C2)CC1C3)c1cc(F)cc(F)c1 (stereo not drawn) [Compound 95]		> 10	< 1	> 10		
CN(Cc1ccccc1)c1ccc(C(C)(C)C(=O)NC2C3CC4CC(C3)CC2C4)cc1 (stereo not drawn) [Compound 81]		> 10	1 to 10	< 1		
COC12CC3CC(C1)C(NC(=O)C(C)(C)c1ccccc1)C(C3)C2 (stereo not drawn) [Compound 109]		> 10	< 1	< 1		
CCC(C(=O)NC1C2CC3CC(C2)CC1C3)c1ccccc1 (stereo not drawn) [Compound 29]		> 10	< 1			
CC(C)(C(=O)NC1C2CC3CC(C2)CC1C3)c1cccc(OCCN2CCCC2)c1 (stereo not drawn) [Compound 71]		> 10	< 1	< 1		
O=C(NCC12CC3CC(CC(C3)C1)C2)C1(c2ccccc2)CC1 [Compound 31]	> 10	> 10	< 1			
COc1ccc(OC)c(C(C)(C)C(=O)NC2C3CC4CC(C3)CC2C4)c1 (stereo not drawn) [Compound 93]		> 10	< 1	< 1		
CC1C(NC(=O)C2(c3ccccc3)CC2)CC2CC1C2(C)C (stereo not drawn) [Compound 56]	> 10	> 10	1 to 10			
